These are literature values, as cited in patent publication US20210290639A1, “IMMEDIATE RELEASE FORMULATION OF A TRIPLE COMBINATION OF ACTIVE PHARMACEUTICAL INGREDIENTS USEFUL IN THE TREATMENT OF POLYCYSTIC OVARY SYNDROME” (priority 2018, published 2021).

For this series the following is noted: low solubility and high permeability.

Molecules are shown by their SMILES.

Take `CCc1ccc(CCOc2ccc(CC3SC(=O)NC3=O)cc2)nc1` (racemic) [pioglitazone, ((±)-5-[p-[2-(5-Ethyl-2-pyridyl)ethoxy]benzyl]-2,4-thiazolidinedione]: the BCS class entry is reported as “Class II”. For the compound `CC(=O)S[C@@H]1CC2=CC(=O)CC[C@]2(C)[C@H]2CC[C@@]3(C)[C@@H](CC[C@@]34CCC(=O)O4)[C@H]12` [spironolactone, 7α-Acetylthio-3-oxo-17α-pregn-4-ene-21,17β-carbolactone], the BCS class result is recorded as “Class II”.
